Test results as given in ChEMBL document CHEMBL6114998, “Design, Synthesis, and Pharmacological Evaluation of Quinazoline and Quinoline Derivatives as Potent ENPP1 Inhibitors for Cancer Immunotherapy” (J Med Chem, 2025).
The source made the active and inactive calls. No cut-off for these calls is given here.

Experiments:
[1] = target: Voltage-gated inwardly rectifying potassium channel KCNH2 (Homo sapiens, UniProt Q12809); assay: Inhibition of hERG expressed in CHO cells by QPatch automated patch-clamp assay; assay type: toxicity, cell-based
[2] = target: T1, Ectonucleotide pyrophosphatase/phosphodiesterase family member 1 (Homo sapiens, UniProt P22413); assay: Inhibition of ENPP1 in human MDA-MB-231 cells using p-NPh-5TMP as substrate at pH 9.5 measured after 60 mins; assay type: cell-based
T1 sequence (P22413 whole entry): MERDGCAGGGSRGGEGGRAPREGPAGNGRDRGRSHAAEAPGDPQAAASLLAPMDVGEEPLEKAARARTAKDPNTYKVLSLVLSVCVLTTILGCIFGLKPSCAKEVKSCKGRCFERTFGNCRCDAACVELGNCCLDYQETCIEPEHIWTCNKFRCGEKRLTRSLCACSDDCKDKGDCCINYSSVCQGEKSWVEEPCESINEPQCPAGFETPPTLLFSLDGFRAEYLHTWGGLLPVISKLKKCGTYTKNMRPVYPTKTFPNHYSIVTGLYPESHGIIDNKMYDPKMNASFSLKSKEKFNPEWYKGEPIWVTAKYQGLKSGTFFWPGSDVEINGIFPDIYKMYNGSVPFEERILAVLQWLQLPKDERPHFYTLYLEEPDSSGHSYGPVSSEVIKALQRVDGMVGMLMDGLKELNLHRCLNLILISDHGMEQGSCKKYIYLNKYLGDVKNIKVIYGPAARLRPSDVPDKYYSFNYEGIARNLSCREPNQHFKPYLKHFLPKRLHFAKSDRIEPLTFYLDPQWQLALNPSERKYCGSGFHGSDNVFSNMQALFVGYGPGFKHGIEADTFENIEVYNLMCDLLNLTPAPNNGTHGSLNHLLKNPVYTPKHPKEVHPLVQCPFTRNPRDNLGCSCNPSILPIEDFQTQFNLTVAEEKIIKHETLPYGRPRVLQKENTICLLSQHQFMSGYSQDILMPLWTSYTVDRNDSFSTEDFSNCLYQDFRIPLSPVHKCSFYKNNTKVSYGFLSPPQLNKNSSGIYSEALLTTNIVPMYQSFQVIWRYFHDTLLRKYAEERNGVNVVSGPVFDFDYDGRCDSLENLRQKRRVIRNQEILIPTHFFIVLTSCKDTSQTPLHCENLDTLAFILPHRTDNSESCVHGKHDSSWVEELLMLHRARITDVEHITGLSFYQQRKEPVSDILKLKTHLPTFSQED

[3] = target: T1, Ectonucleotide pyrophosphatase/phosphodiesterase family member 1; assay: Inhibition of recombinant human ENPP1 transfected in HEK293T cells using cGAMP as substrate at pH 7.5 measured after 3.5 hrs by luminescence based AMP-glo assay; assay type: cell-based
[4] = system: THP-1; assay: Activation of STING signalling pathway in human THP-1 cells assessed as increase in IFNB1 expression at 10 to 1000 nM measured after 18 hrs in presence of cGAMP by qPCR analysis; assay type: cell-based; conditions: filed as activator, dose 10-1000 nM
[5] = target: T1, Ectonucleotide pyrophosphatase/phosphodiesterase family member 1; assay: Inhibition of ENPP1 in human MDA-MB-231 cells using p-NPh-5TMP as substrate at pH 8.5 measured after 60 mins; assay type: cell-based
[6] = system: THP1-Dual; assay: Activation of STING-mediated immune response in human THP1-Dual cells assessed as increase in cGAMP-induced ISRE activation by measuring type 1 IFN response at 10 to 1000 nM preincubated in conditioned medium containing 36 hrs compound treated with human MDA-MB-231 cells measured after 24 hrs by quanti-luc luciferase assay; assay type: cell-based; conditions: filed as activator, dose 10-1000 nM, time 60.0 hrs
[7] = Apparent permeability across basal to apical side in human Caco-2 cells at 10 uM by LC-MS/MS analysis; assay type: ADME, cell-based
[8] = Cmax in Sprague-Dawley rat at 10 mg/kg, iv measured upto 24 hrs by LC-MS/MS analysis; assay type: ADME, organism-based; conditions: in vivo
[9] = MRT (0 to t) in Sprague-Dawley rat at 10 mg/kg, iv measured upto 24 hrs by LC-MS/MS analysis; assay type: ADME, organism-based; conditions: in vivo
[10] = system: CT26; assay: Antitumor activity against mouse CT26 cells allografted in female BALB/c mouse assessed as tumor growth inhibition at 200 mg/kg QD, po measured every 2 days for 12 days relative to control; assay type: functional; conditions: CT26, 288 h, time 12 day, read-out: TGI
[11] = Toxicity in female BALB/c mouse allografted with mouse CT26 cells assessed as change in body weight at 200 mg/kg QD, po measured every 2 days for 12 days; assay type: organism-based; conditions: in vivo, 288 h, time 12 day
[12] = AUC(0 to t) in Sprague-Dawley rat at 10 mg/kg, iv measured upto 24 hrs by LC-MS/MS analysis; assay type: ADME, organism-based; conditions: in vivo
[13] = system: THP1-Dual KO-STING; assay: Cytotoxicity against human THP1-Dual KO-STING cells assessed as effect on cell viability at 1 uM followed by addition of conditioned medium containing 36 hrs compound pretreated human MDA-MB-231 cells measured after 24 hrs by celltiter-glo assay; assay type: functional, cell-based; conditions: time 60.0 hrs
[14] = Clearance in Sprague-Dawley rat at 10 mg/kg, iv measured upto 24 hrs by LC-MS/MS analysis; assay type: ADME, organism-based; conditions: in vivo
[15] = Efflux ratio of apparent permeability from basolateral to apical side over apical to basolateral side in human Caco-2 cells at 10 uM by LC-MS/MS analysis; assay type: ADME, cell-based
[16] = Apparent permeability across apical to basal side in human Caco-2 cells at 10 uM by LC-MS/MS analysis; assay type: ADME, cell-based
[17] = system: THP1-Dual; assay: Cytotoxicity against human THP1-Dual cells assessed as effect on cell viability at 10 to 1000 nM pretreated with compound in serum-free medium for 36 hrs in presence of cGAMP followed by replacement with condition medium and measured after 24 hrs by celltiter-glo assay; assay type: functional, cell-based; conditions: dose 10-1000 nM, time 60.0 hrs
[18] = Half life in Sprague-Dawley rat at 10 mg/kg, iv measured upto 24 hrs by LC-MS/MS analysis; assay type: ADME, organism-based; conditions: in vivo
[19] = target: T1, Ectonucleotide pyrophosphatase/phosphodiesterase family member 1; assay: Binding affinity to human ENPP1 assessed as inhibition constant
[20] = system: THP1-Dual KO-STING; assay: Activation of STING-mediated immune response in human THP1-Dual KO-STING cells assessed as cGAMP-induced ISRE activation at 1 uM preincubated with conditioned medium containing 36 hrs compound treated with human MDA-MB-231 cells and measured after 24 hrs by quanti-luc luciferase assay; assay type: cell-based; conditions: filed as activator, time 60.0 hrs
[21] = system: THP1-Dual; assay: Activation of STING-mediated immune response in human THP1-Dual cells assessed as increase in cGAMP-induced ISRE activation preincubated in conditioned medium containing 36 hrs compound treated with human MDA-MB-231 cells measured after 24 hrs by quanti-luc luciferase assay; assay type: cell-based; conditions: filed as activator, time 60.0 hrs

Sequence of Voltage-gated inwardly rectifying potassium channel KCNH2 (Q12809 whole entry): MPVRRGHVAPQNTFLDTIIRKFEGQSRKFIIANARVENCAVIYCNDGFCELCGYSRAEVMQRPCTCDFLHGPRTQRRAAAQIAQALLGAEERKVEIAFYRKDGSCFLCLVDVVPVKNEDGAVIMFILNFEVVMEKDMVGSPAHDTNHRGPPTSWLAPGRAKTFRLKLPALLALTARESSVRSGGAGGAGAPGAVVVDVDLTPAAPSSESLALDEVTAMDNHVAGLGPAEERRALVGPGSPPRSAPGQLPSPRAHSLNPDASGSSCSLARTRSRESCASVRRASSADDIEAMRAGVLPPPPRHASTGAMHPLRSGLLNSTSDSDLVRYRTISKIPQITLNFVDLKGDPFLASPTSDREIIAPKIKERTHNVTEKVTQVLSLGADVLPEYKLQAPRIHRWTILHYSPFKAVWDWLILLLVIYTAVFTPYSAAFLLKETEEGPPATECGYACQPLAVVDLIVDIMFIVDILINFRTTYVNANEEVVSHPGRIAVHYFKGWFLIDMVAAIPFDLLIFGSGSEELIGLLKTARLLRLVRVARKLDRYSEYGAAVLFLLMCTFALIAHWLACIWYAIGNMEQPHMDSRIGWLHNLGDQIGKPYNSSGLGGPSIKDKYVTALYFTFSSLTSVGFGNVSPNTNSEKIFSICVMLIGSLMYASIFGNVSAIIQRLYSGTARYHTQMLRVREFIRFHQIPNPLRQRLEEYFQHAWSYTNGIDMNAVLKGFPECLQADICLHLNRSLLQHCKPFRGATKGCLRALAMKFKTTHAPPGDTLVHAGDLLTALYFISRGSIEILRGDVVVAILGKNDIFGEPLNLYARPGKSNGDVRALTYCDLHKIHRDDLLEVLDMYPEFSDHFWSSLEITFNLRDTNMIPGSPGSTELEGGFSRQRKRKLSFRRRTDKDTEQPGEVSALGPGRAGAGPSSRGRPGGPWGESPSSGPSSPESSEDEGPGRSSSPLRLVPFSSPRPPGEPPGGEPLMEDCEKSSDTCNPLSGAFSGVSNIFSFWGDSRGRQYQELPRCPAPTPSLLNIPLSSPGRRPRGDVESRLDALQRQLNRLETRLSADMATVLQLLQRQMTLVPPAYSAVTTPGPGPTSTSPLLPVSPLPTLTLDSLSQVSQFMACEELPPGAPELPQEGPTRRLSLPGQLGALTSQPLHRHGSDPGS

| SMILES | IC50 [2] [nM] | IC50 [3] [nM] | other results |
| --- | --- | --- | --- |
| COc1cccc2c(N3CCC4(CC3)CC(NS(N)(=O)=O)CO4)c(C#N)cnc12 (stereo unspecified) | > 1000 | 572 |  |
| COc1cccc2c(N3CCC4(CC3)CC(NS(N)(=O)=O)C4)c(C#N)cnc12 | > 1000 | 373 |  |
| COc1cccc2c(N[C@H]3CC[C@H](CNS(N)(=O)=O)CC3)ncnc12 | > 1000 | > 1000 |  |
| COc1cccc2c(N[C@H]3CC[C@H](CNS(N)(=O)=O)CC3)c(C#N)cnc12 | > 1000 | > 1000 |  |
| COc1cccc2c(NC34CC(NS(N)(=O)=O)(C3)C4)ncnc12 | > 1000 | 95.1 |  |
| COc1cccc2c(NC3CC(NS(N)(=O)=O)C3)ncnc12 (stereo unspecified) | > 1000 | 438 |  |
| COc1cccc2c(N3CCC(O)(CCNS(N)(=O)=O)CC3)ncnc12 | 154 | 305 |  |
| COc1cccc2c(NC3CCC(NS(N)(=O)=O)CC3)ncnc12 (stereo unspecified) | > 1000 | 156 |  |
| Cn1nc(Cc2ccc(NS(N)(=O)=O)cc2)c2ccccc2c1=O | 556 | 1380 | IC50 [5]: 4560 nM; Activity [6]: Active; Papp B→A at 10 µM [7]: 23.2 ×10⁻⁶ cm/s; Cmax [8]: 11400 ng/mL; MRT last at 24 h [9]: 2.92 h; inhibition in vivo at 200 mg/kg [10]: 39.4%; Activity [11]: Non-toxic; AUC(0-t) at 24 h [12]: 27900 ng·h/mL; Activity [13]: Active; clearance [14]: 6.18 mL/min/kg; efflux ratio at 10 µM [15]: 3.82; Papp A→B at 10 µM [16]: 6.06 ×10⁻⁶ cm/s; Activity [17]: Active; half-life [18]: 3.24 h |
| COc1cccc2c(N3CCC(CCP(=O)(O)O)CC3)ncnc12 | 50.1 | 0.5 | IC50 [5]: 15 nM; Papp B→A at 10 µM [7]: 0.394 ×10⁻⁶ cm/s; Cmax [8]: 4800 ng/mL; MRT last at 24 h [9]: 0.39 h; AUC(0-t) at 24 h [12]: 1780 ng·h/mL; Ki [19]: < 2 nM; Activity [20]: Active; Activity [13]: Active; clearance [14]: 94 mL/min/kg; Activity [21]: Dose-dependent-effect; efflux ratio at 10 µM [15]: 3.34; Papp A→B at 10 µM [16]: 0.118 ×10⁻⁶ cm/s; Activity [17]: Active; Activity [4]: Active; half-life [18]: 0.878 h |
| COc1cccc2c(N3CCC4(CC3)CC4NS(N)(=O)=O)ncnc12 (stereo unspecified) | > 1000 | 95.3 |  |
| COc1cccc2c(N[C@H]3CC[C@H](NS(N)(=O)=O)CC3)ncnc12 | > 1000 | 370 |  |
| COc1cccc2c(N3CCC4(CC3)CC(NS(N)(=O)=O)C4)ncnc12 | > 1000 | 455 |  |

The next compounds have a lower IC50 [2] than those just listed; values first:

| IC50 [2] [nM] | IC50 [3] [nM] | SMILES | other results |
| --- | --- | --- | --- |
| 42 | 27.6 | COc1cccc2c(N[C@H]3CC[C@@H](NS(N)(=O)=O)CC3)ncnc12 |  |
| 23.2 | 55.5 | COc1cccc2c(N3CC4CC3CC4CNS(N)(=O)=O)c(C#N)cnc12 (stereo unspecified) |  |
| 16.6 | 53.7 | COc1cccc2c(NC3CC(NS(N)(=O)=O)C3)c(C#N)cnc12 (stereo unspecified) |  |
| 10.7 | 18 | COc1cccc2c(N[C@H]3CC[C@@H](NS(N)(=O)=O)CC3)c(C#N)cnc12 |  |
| 10.3 | 6.22 | COc1cccc2c(NC34CC(NS(N)(=O)=O)(C3)C4)c(C#N)cnc12 |  |
| 8.62 | 40.3 | COc1cccc2c(NC3CCC(NS(N)(=O)=O)CC3)c(C#N)cnc12 (stereo unspecified) |  |
| 6.78 | 27.7 | COc1cccc2c(N3CCC4(CC(NS(N)(=O)=O)C4)C3)c(C#N)cnc12 (stereo unspecified) |  |
| 6.2 | 23.7 | COc1cccc2c(N3CCC4(CC3)CC4NS(N)(=O)=O)c(C#N)cnc12 (stereo unspecified) |  |
| 5.06 | 14.9 | COc1cccc2c(N3CCC4(CC(NS(N)(=O)=O)C4)C3)ncnc12 (stereo unspecified) |  |
| 4.41 | 10.2 | COc1cccc2c(N3CCC(C)(CNS(N)(=O)=O)CC3)ncnc12 |  |
| 2.88 | 14.9 | COc1cccc2c(N3CCC(F)(CNS(N)(=O)=O)CC3)ncnc12 |  |
| 1.84 | 11.6 | COc1cccc2c(N3CCC(O)(CNS(N)(=O)=O)CC3)c(C#N)cnc12 | Activity [4]: Active |
| 1.23 | 3.28 | COc1cccc2c(N3CCC(F)(CNS(N)(=O)=O)CC3)c(C#N)cnc12 | Activity [4]: Active |
| 1.07 | 3.84 | COc1cccc2c(N3CCC(C)(CNS(N)(=O)=O)CC3)c(C#N)cnc12 | IC50 [1]: > 40000 nM; Activity [4]: Active |
| 0.97 | 6.65 | COc1cccc2c(N3CCC(C#N)(CNS(N)(=O)=O)CC3)c(C#N)cnc12 | IC50 [1]: > 40000 nM; Activity [4]: Active |
